Assay results as given in PMC8521518, “Nicotinamide Adenine Dinucleotide-Dependent Flavin Oxidoreductase of Mycoplasma hyopneumoniae Functions as a Potential Novel Virulence Factor and Not Only as a Metabolic Enzyme” (Frontiers in Microbiology, 2021).

Target: T1, rNFOR (Mhp NFOR, NADH-dependent flavin oxidoreductase) (Mesomycoplasma hyopneumoniae, UniProt E4QSY0)
T1 construct: gene baiH; 44 kDa on gel
Test: NADH oxidation
Assay type: biochemical
Conditions: 0.5 mM NADH, 10 uM FMN (5 min preincubation), 0.1 M potassium phosphate pH 7.5, 1 mM DTT, 25 C

T1 sequence (E4QSY0 entry or part of it): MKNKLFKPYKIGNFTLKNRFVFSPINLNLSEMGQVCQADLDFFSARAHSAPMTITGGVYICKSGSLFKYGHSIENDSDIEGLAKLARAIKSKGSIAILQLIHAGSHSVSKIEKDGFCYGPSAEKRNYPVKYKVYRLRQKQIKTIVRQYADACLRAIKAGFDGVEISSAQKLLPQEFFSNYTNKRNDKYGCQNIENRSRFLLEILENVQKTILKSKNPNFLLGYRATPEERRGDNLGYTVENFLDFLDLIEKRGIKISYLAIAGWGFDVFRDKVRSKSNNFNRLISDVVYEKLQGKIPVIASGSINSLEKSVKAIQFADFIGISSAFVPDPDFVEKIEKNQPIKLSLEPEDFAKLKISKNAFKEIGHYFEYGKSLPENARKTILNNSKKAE

NC(=O)C1=CN([C@@H]2O[C@H](COP(=O)(O)OP(=O)(O)OC[C@H]3O[C@@H](n4cnc5c(N)ncnc54)[C@H](O)[C@@H]3O)[C@@H](O)[C@H]2O)C=CC1 [NADH]
NADH oxidation, absorbance at 340 nm: enzymatic activity of purified rNFOR was determined by calculating the oxidation of NADH to NAD^+
